Source: the NIST ThermoML archive (doi:10.1021/je301283e)

Settings: Fluid (supercritical or subcritical phases), Vibrating tube method

O=C=O [carbon dioxide]
mass density [kg/m3]
Settings | 313.15 K | 333.15 K | 353.15 K | 373.15 K | 393.15 K
340 kPa | 8.2 | 7.7 | 7.4 | 6.5 | 5.7
690 kPa | 15.1 | 13.4 | 13.5 | 10.9 | 9.5
1030 kPa | 21.4 | 19.9 | 18.8 | 17.1 | 16.3
1380 kPa | 26.7 | 25.1 | 24.6 | 23.2 | 22.1
1720 kPa | 34.2 | 31.9 | 31.4 | 28.6 | 26.9
2070 kPa | 38.6 | 38.4 | 36.1 | 32.7 | 32
2410 kPa | 48.4 | 44.1 | 41.9 | 39.2 | 37
2760 kPa | 56.7 | 51.2 | 48 | 44.8 | –
3100 kPa | 64.1 | 59.1 | 54.1 | 50.3 | 47.4
3450 kPa | 72.9 | 65.1 | 61.4 | 56.1 | 52.9
3800 kPa | 80.9 | 73.1 | 67.2 | 63.2 | 58.2
4140 kPa | 87.5 | 79.7 | 73.8 | 67.9 | 63.6
4480 kPa | 99.4 | 87.9 | 80.5 | 73.1 | 69.2
4830 kPa | 109.8 | 96.5 | 88 | 80 | 74.7
5170 kPa | 122 | 105.1 | 94.9 | 86.2 | 80.4
5510 kPa | 134 | 114.2 | 102.4 | 93 | 86.2
5860 kPa | 145.4 | 123.8 | 110.2 | 99.2 | 92.4
6200 kPa | 158 | 133.4 | 118 | 106 | 98.1
6550 kPa | 175.1 | 144.2 | 126.2 | 112.9 | 104.7
6890 kPa | 194.5 | 154.3 | 134.4 | 120 | 110.5
7240 kPa | 218.9 | 166.4 | 143.4 | 127 | 113.6
7580 kPa | 239.9 | 178.8 | 152.1 | 135.4 | 123.1
7930 kPa | 272.8 | 190.1 | 161.4 | 143.1 | 129.9
8270 kPa | 315.6 | 205.2 | 171.1 | 151.1 | 136.2
8620 kPa | 383.1 | 219.5 | 180.8 | 158.1 | 142.9
8960 kPa | 478.5 | 235.1 | 191.1 | 166.1 | 149.4
9310 kPa | 554.1 | 252.4 | 201.8 | 174.4 | 156.2
9650 kPa | 599.1 | 271 | 211.9 | 182.7 | 163.2
10000 kPa | 630 | 291.4 | 223.5 | 191.9 | 170.4
10340 kPa | 649.1 | 313.6 | 235 | 199.4 | 176.4
10690 kPa | 667.8 | 337 | 247.4 | 208.4 | 183.2
11030 kPa | 682.9 | 361.9 | 259.8 | 217.3 | 191.1
11380 kPa | 696.2 | 388 | 272.4 | 223.2 | 198.2
11720 kPa | 708 | 411.1 | 283.9 | 233.1 | 203.9
12070 kPa | 718.3 | 437.9 | 298.3 | 242.8 | 210.8
12410 kPa | 727.4 | 463.8 | 312.1 | 252.7 | 218
12750 kPa | 737.3 | 489.2 | 328.4 | 262.8 | 226.3
13100 kPa | 744.1 | 510.1 | 342 | 272.5 | 234
13440 kPa | 751 | 530.7 | 356.7 | 283.1 | 242.1
13790 kPa | 757.9 | 549.9 | 372.8 | 293.1 | 250.9
14130 kPa | 765.3 | 567.7 | 388.6 | 304.7 | 258
14480 kPa | 770 | 582 | 403 | 314.9 | 266.4
14820 kPa | 775.9 | 596 | 417.8 | 325 | 275
15160 kPa | 781.5 | 609.4 | 433 | 336.1 | 283.9
15510 kPa | 786.4 | 621 | 447.5 | 347.6 | 291.1
15860 kPa | 791.7 | 627.4 | 461 | 358.1 | 300.7
16200 kPa | 796.1 | 642.1 | 475 | 368.7 | 308.4
16550 kPa | 801.2 | 651.8 | 488.1 | 379.8 | 316.8
16900 kPa | 805.8 | 661.7 | 501 | 390.2 | 325.1
17240 kPa | 809.8 | 669.7 | 513 | 400.4 | 333.1
